Measured values reported in patent US8183230B2, “Antimicrobial preservatives to achieve multi-dose formulation using beta-cyclodextrins for liquid dosage forms” (priority 2004, dated 2012).
Entries after “also recorded” stand apart in the source; their conditions may differ. Like-named read-outs stand apart in the source and are kept apart here.

How the values were obtained:
[1] = for IST: Study A, compound of Formula Ia at 10 mgA/mL
Experimental: Injection site toleration was measured by inspecting the patient for signs of reaction, including erythema (size); skin thickening (size), pain on palpation and edema. Table VI provides a detailed explanation of the scoring system: a score of 0 (no reaction) to 4 (severe reaction) was given for each characteristic and each injection site daily.
Compound of Formula Ia formulations were evaluated for injection site toleration (hereinafter “IST”).
Formulations were tested in groups of 4 dogs comprised of beagles and mongrels. […] Dogs were observed daily for evidence of reaction at the injection site and a score of 0-4 (see Table VI) was given for each of the following parameters: pain on injection, erythema, tissue thickening, pain on palpation and edema. Dogs were observed daily until day 5 (24 hours after the last dose).

[2] = test system: Escherichia coli, Pseudomonas aeruginosa, Staphylococcus aureus, Candida albicans, Aspergillus niger; test: Hybrid USP/Ph. Eur. antimicrobial effectiveness test (AET); type: cell-based; details: for AET Results Ph. Eur. Criteria A: Study A, compound of Formula Ia at 10 mgA/mL, cells without ✓ print organism (time point); for Ph. Eur. criteria B: leads of Study B; for USP/Ph. Eur. requirements (initial results of preliminary screen): multidose compound of Formula Ia formulation with SBE-CD
Experimental: Preparation of Preserved Formulations. […] Antimicrobial preservatives with optimal activity at a pH outside the nominal formulation value (pH 4.4) were titrated to either 3.5 or 5.0 using 1 N HCl or 1 N NaOH. A stock solution of either 10% or 5% (weight/volume) SBE-CD containing 10 mgA/mL of the compound of Formula Ia citrate was prepared. Preservative was added to the respective formulation on a weight basis.
Antimicrobial Efficacy Testing. A hybrid USP […]/Ph. Eur. 2000 antimicrobial effectiveness test (AET) was performed, as follows: 20 mL of drug product was individually inoculated with 0.1-0.2 mL of bacterial or fungal culture, per USP/Ph. Eur. compendial requirements. The final concentration of organisms in the test sample was between 1×10^5 and 1×10^6 cfu/mL. At initial 6 hr, 24 hr, 7 day, 14 day, and 28 day time intervals, 1 mL of the inoculated product was transferred into 9 mL of a recovery diluent, that was validated to confirm neutralization of the antimicrobial preservative. One mL of the diluted sample was then transferred to a sterile petri dish and combined with 15-20 mL of an agar broth to culture the organisms. Plates were then incubated for 3 to 5 days, upon which colonies were counted. Initial organism contamination was then calculated based on dilution of the initial sample.
Generally, the USP test requirements are less stringent than Ph. Eur. requirements, which typically have an immediate bacteriocidal activity requirement. The Ph. Eur. requirements shown in Table III have either a “Criteria A” or “Criteria B” specification depending on the rate of microorganism reduction, with criteria A requiring an increased bacteriocidal rate. In order to meet the combined hybrid assay, the initial inoculum count of microorganisms needed to be reduced by the amounts listed in Table V.

[3] = Stability measurements (accelerated stability); details: for ACCEPTABLE STABILITY: 10 mgA/mL compound of Formula Ia
Experimental: Stability Measurements. Potential lead formulations were evaluated under various accelerated stability conditions in order to assess potency and purity of compound of Formula Ia, preservative content and SBE-CD content. For example, in one accelerated stability study, potential lead formulations were placed in stability ovens to measure short-term thermal stability. […] Purity and potency assays to measure compound of Formula Ia, as well as antimicrobial preservatives and SBE-CD content, were performed using validated HPLC methodology. SBE-CD was assayed using GTP 5984.

[4] = test system: Escherichia coli, Pseudomonas aeruginosa, Staphylococcus aureus, Candida albicans, Aspergillus niger; details: as indicated by literature; cited from earlier work
[5] = compound of Formula Ia formulations solubilised with cyclodextrin
[6] = pH: 4.2, SBE-CD: 10%, preservative content 0.2%
[7] = preserved compound of Formula Ia/SBE-CD formulations
[8] = pH: 4.4, SBE-CD: 5%, ethanol 15%
[9] = pH: 4.4, SBE-CD: 10%, content: ethanol 15%, meta-cresol 0.3%, propylene glycol 50%, thimerosal 0.01

## 2-hydroxypropyl-β-cyclodextrin
[1]; [5]
  injection site toleration: acceptable injection site toleration

## O=C(O)c1ccccc1 [Benzoic acid, Benzoic Acid]
[2]; [6]
  AET Results Ph. Eur. Criteria A: c. alb (7 d); also recorded: s. aur (6, 24 hr)
[2]; after 7 days
  reducing the microorganisms: ineffective
[2]
  Ph. Eur. criteria B: met criteria B
[1]; [6]
  IST: Poor
[1]; preserved compound of Formula Ia formulation
  pain on injection: moderate to severe pain on injection
[1]; [7]
  injection site toleration: poor IST results
[3]; over 12 weeks at 70° C. storage
  loss of preservative: no detectable loss
[3]; pH 4.2, 10% SBE-CD
  ACCEPTABLE STABILITY: ✓
[4]
  USP and Ph. Eur. criteria A or B requirements: met both the USP and either Ph. Eur. criteria A or B requirements

## CCO [Ethanol]
[2]; [8]
  AET Results Ph. Eur. Criteria A: a. niger (7 d)
[2]; [9]
  AET Results Ph. Eur. Criteria A: s. aur (6 hr)
[2]
  USP/Ph. Eur. requirements (initial results of preliminary screen): satisfied USP/Ph. Eur. requirements
[1]; [8]
  IST: Poor
[1]; [9]
  IST: Poor
[3]; pH 4.4, 5% SBE-CD
  ACCEPTABLE STABILITY: ✓
[4]
  USP and Ph. Eur. criteria A or B requirements: met both the USP and either Ph. Eur. criteria A or B requirements

## CC(O)CO (stereo not shown) [Propylene glycol]
[2]
  activity against the fungi: ineffective against the fungi
  USP/Ph. Eur. requirements (initial results of preliminary screen): satisfied USP/Ph. Eur. requirements
[2]; with and without SBE-CD
  activity against bacteria: active against bacteria only in the presence of SBE-CD
[4]
  USP and Ph. Eur. criteria A or B requirements: met both the USP and either Ph. Eur. criteria A or B requirements

## C[CH2][Hg][S]c1ccccc1C(=O)[O-].[Na+] [Thimerosal]
[2]
  Ph. Eur. criteria B: met criteria B
  USP/Ph. Eur. requirements (initial results of preliminary screen): satisfied USP/Ph. Eur. requirements
[1]; [9]
  IST: Good
[1]; [7]
  injection site toleration: good injection site toleration
[3]
  stability in the formulation (in words): commercially undesirable
[3]; Study A, pH: 4.4, SBE-CD: 10%, thimerosal 0.01, compound of Formula Ia at 10 mgA/mL
  Stability: 1 wk/70
[3]; after 1 week at 70° C. storage
  preservative remained in the formulation: 30%
[3]; after 6 weeks, 70° C. storage
  loss of preservative: complete loss
[4]
  USP and Ph. Eur. criteria A or B requirements: met both the USP and either Ph. Eur. criteria A or B requirements

## Sulfobutylether-βcyclodextrin [SBE-CD]
[1]; [5]
  injection site toleration: acceptable injection site toleration
